# Laboratory results: ChEMBL document CHEMBL1155851, “Synthesis of some novel imidazole-based dicationic carbazolophanes as potential antibacterials” (2008)
# Calls of active or inactive are those of the source. No cut-off for these calls is given here.
# Assays:
# Proteus mirabilis = experiment: Antimicrobial activity against Proteus mirabilis; format: functional
# Staphylococcus aureus [1] = experiment: Antimicrobial activity against Staphylococcus aureus; format: functional
# Proteus vulgaris = experiment: Antimicrobial activity against Proteus vulgaris; format: functional
# Pseudomonas aeruginosa = experiment: Antimicrobial activity against Pseudomonas aeruginosa; format: functional
# Salmonella typhi = experiment: Antimicrobial activity against Salmonella typhi; format: functional, Salmonella enterica subsp. enterica serovar Typhi; details: Salmonella enterica
# Staphylococcus aureus [2] = tested on: Staphylococcus aureus
SMILES,MIC (Proteus mirabilis) [µg/mL],MIC (Staphylococcus aureus [1]) [µg/mL],MIC (Proteus vulgaris) [µg/mL],MIC (Pseudomonas aeruginosa) [µg/mL],MIC (Salmonella typhi) [µg/mL],MIC (Staphylococcus aureus [2])
CCn1c2ccc3cc2c2cc(ccc21)C(=O)c1ccc(cc1)Cn1cc[n+](c1)Cc1ccc(cc1)-c1cccc(c1)-c1ccc(cc1)C[n+]1ccn(c1)Cc1ccc(cc1)C3=O.[Br-].[Br-],75,75,70,75,55,
CCn1c2ccc3cc2c2cc(ccc21)C(=O)c1ccc(cc1)Cn1cc[n+](c1)Cc1cccc(n1)C[n+]1ccn(c1)Cc1ccc(cc1)C3=O.[Br-].[Br-],20,12,25,30,15,
CN(C)[C@@H]1C(O)=C(C(N)=O)C(=O)[C@@]2(O)C(O)=C3C(=O)c4c(O)cccc4[C@@](C)(O)[C@H]3C[C@@H]12 [TETRACYCLINE],20,20,35,35,15,
CCn1c2ccc3cc2c2cc(ccc21)C(=O)c1ccc(cc1)Cn1cc[n+](c1)Cc1ccc(cc1)C(=O)c1ccc2c(c1)c1cc(ccc1n2CC)C(=O)c1ccc(cc1)C[n+]1ccn(c1)Cc1ccc(cc1)C3=O.[Br-].[Br-],35,25,40,55,25,
CCn1c2ccc3cc2c2cc(ccc21)C(=O)c1ccc(cc1)Cn1c[n+](c2ccccc21)Cc1ccc(cc1)C(=O)c1ccc2c(c1)c1cc(ccc1n2CC)C(=O)c1ccc(cc1)C[n+]1cn(c2ccccc21)Cc1ccc(cc1)C3=O.[Br-].[Br-],30,26,30,35,25,
CCn1c2ccc3cc2c2cc(ccc21)C(=O)c1ccc(cc1)Cn1c[n+](c2ccccc21)Cc1cc(OC)c(cc1OC)C[n+]1cn(c2ccccc21)Cc1ccc(cc1)C3=O.[Br-].[Br-],55,,45,70,40,
CCn1c2ccc3cc2c2cc(ccc21)C(=O)c1ccc(cc1)Cn1c[n+](c2ccccc21)Cc1ccc(cc1)-c1cccc(c1)-c1ccc(cc1)C[n+]1cn(c2ccccc21)Cc1ccc(cc1)C3=O.[Br-].[Br-],50,45,50,65,45,
CCn1c2ccc3cc2c2cc(ccc21)C(=O)c1ccc(cc1)Cn1c[n+](c2ccccc21)Cc1ccc(cc1)-c1cccc(c1C(=O)O)-c1ccc(cc1)C[n+]1cn(c2ccccc21)Cc1ccc(cc1)C3=O.[Br-].[Br-],55,,60,70,50,inactive
CCn1c2ccc3cc2c2cc(ccc21)C(=O)c1ccc(cc1)Cn1c[n+](c2ccccc21)Cc1cccc(n1)C[n+]1cn(c2ccccc21)Cc1ccc(cc1)C3=O.[Br-].[Br-],10,8,15,20,15,
CCn1c2ccc3cc2c2cc(ccc21)C(=O)c1ccc(cc1)Cn1cc[n+](c1)Cc1ccc(cc1)-c1cccc(c1C(=O)O)-c1ccc(cc1)C[n+]1ccn(c1)Cc1ccc(cc1)C3=O.[Br-].[Br-],50,35,65,80,35,
CCn1c2ccc3cc2c2cc(ccc21)C(=O)c1ccc(cc1)Cn1cc[n+](c1)Cc1cc([N+](=O)[O-])cc(c1O)C[n+]1ccn(c1)Cc1ccc(cc1)C3=O.[Br-].[Br-],20,20,30,35,20,
CCn1c2ccc3cc2c2cc(ccc21)C(=O)c1ccc(cc1)Cn1c[n+](c2ccccc21)Cc1cc([N+](=O)[O-])cc(c1O)C[n+]1cn(c2ccccc21)Cc1ccc(cc1)C3=O.[Br-].[Br-],30,20,35,30,15,
